Assay: In vitro elution of antibiotics from beads into PBS, quantified by LCMS
Format: physicochemical
Conditions: beads in 4 mL PBS at 37° C, 1.5 ml exchanged per time point
Description: Three grams of beads 2 were immersed in 4 mL of sterile phosphate-buffered saline (PBS) at 37° C. At each time point, 1.5 ml of the solution was sampled and replenished with fresh PBS. The samples were then syringe filtered using a 0.2 μm 13 mm PES syringe tilter into 2 mL amber glass vials.
Quantification of eluted antibiotics was measured using a single quadrupole mass spectrometer (MS) coupled to a 1260 infinity II series liquid chromatography stack (LCMS) (Agilent Technologies). Depending on the concentration, samples were analysed either neat or diluted to ensure values fell within the linear range of the standard curves. Concentrations were calculated from peak areas using standard curves developed from dilutions of antibiotic prepared to known concentrations. Separation was conducted with a Poroshell 120-SB-C18 column ([…]).
LCMS conditions were Buffer A was 99.9% H2O, 0.1% Heptafluorobutyric Acid and B was 99.9% Acetonitrile (CAN), 0.1% % Heptafluorobutyric Acid. The gradient was held with 30.0% B for 2 min before increasing linearly to 95.0% over 5 min. The 100% B was maintained for a further 1 min before rapid equilibration in 100% A. The flow rate was constant at 0.3 mL/min.
The gas temperature in the source was 325° C. with a flow rate of 9 L/min. The nebulizer pressure was 35 pounds per square inch and the capillary voltage […]. Fragmentor and collision energy voltages were optimized for each antibiotic.

Elution concentration (Day 1): 7046.208 µg/mL | Elution concentration (Day 3): 4693.264 µg/mL | Elution concentration (Day 4): 3130.589 µg/mL | Elution concentration (Day 7): 1972.743 µg/mL | Elution concentration (Day 8): 1058.751 µg/mL | Elution concentration (Day 9): 574.1567 µg/mL | Elution concentration (Day 10): 354.742 µg/mL | Elution concentration (Day 11): 216.352 µg/mL | Elution concentration (Day 14): 135.2563 µg/mL | Elution concentration (Day 15): 109.8367 µg/mL | Elution concentration (Day 17): 15.486 µg/mL | Elution concentration (Day 18): 9.978 µg/mL | Elution concentration (Day 21): 7.125 µg/mL | Elution concentration (Day 22): 5.194 µg/mL | Elution concentration (Day 23): 3.866 µg/mL | Elution concentration (Day 24): 3.277 µg/mL | Elution concentration (Day 25): 2.913 µg/mL | Elution concentration (Day 29): 2.833 µg/mL | Elution concentration (Day 30): 2.598 µg/mL | Elution concentration (Day 31): 2.454 µg/mL
Substance: tobramycin sulfate
